# Laboratory results published in patent US8435997B2, “Cysteine prodrugs to treat schizophrenia and drug addiction” (Marquette University, priority 2007, dated 2013).
# How the values were obtained:
# [1] = system: cocaine-induced reinstatement; assay: Extinction/reinstatement paradigm, cocaine-induced reinstatement of lever pressing; format: in vivo; settings: rats, cocaine 10 mg/kg IP
# Description: The extinction/reinstatement paradigm represents one of the most common paradigms used to screen for potential anticraving properties of novel pharmacotherapies. In the present experiments, rats were implanted with indwelling jugular catheters with an external port affixed slightly posterior to the rat's shoulder blades. Tubing is used to connect a syringe of cocaine to the external port of the indwelling catheter. Rats are then placed into standard operant chambers (Med Associates) and permitted to press a lever for an infusion of cocaine (0.5 mg/kg/200 microL, IV). Once behavior is stable, rats are permitted at least eleven 2-hr sessions to self-administer cocaine. Afterwards, the cocaine solution is replaced with saline in order to extinguish lever pressing. Once responding decreases to 10 or fewer lever presses/2 hr sessions for 3 out of 4 daily sessions, rats are tested for reinstatement (relapse). To do this, rats are placed into the operant chamber and vehicle or a cysteine/cystine prodrug (1-60 mg/kg, p.o.; N=2-12) is administered. Afterwards, rats then receive an injection of cocaine (10 mg/kg, IP). Responding is then assessed for 120 min.
# [2] = system: PCP-evoked deficits in pre-pulse inhibition; assay: Prepulse inhibition of startle response, phencyclidine (PCP)-induced sensorimotor gating deficits; format: in vivo, rats; settings: for sensorimotor gating (inhibition of startle response by pre-pulse) after PCP: rats, 30 mg/kg po, 60 min prior to PCP 1 mg/kg SC, pre-pulse 2-15 db above background, FIG. 2
# [3] = system: extracellular glutamate in the prefrontal cortex; assay: Extracellular glutamate in the prefrontal cortex compared to baseline after prodrug administration; format: in vivo; settings: rats; compound 7 30 mg/kg po (N=1) versus N-acetylcysteine 60 mg/kg IP (N=4); FIG. 1
# Description: FIG. 1 is a bar graph depicting extracellular glutamate in the prefrontal cortex (compared to baseline) following administration of cysteine prodrugs N-acetylcysteine (60 mg/kg, IP; N=4) or compound 7 (30 mg/kg, po; N=1) in rats. […] Compound 7 was given to the animal orally, and thereby subjected to potential first-pass metabolism. Conversely, N-acetylcysteine was given IP in order to avoid extensive first pass metabolism that would occur following oral administration. Thus, compound 7 produced a larger relative increase in glutamate in rats as compared to NAC even though NAC was given in its preferred route of administration and at twice the concentration.
smiles,measurement,setting,value
"CCOC1=NC(CS)C(OCC)=NC1 (centres unmarked) [Compound 5, (3,6-Diethoxy-2,5-dihydro-pyrazin-2-yl)-methanethiol]",cocaine-induced reinstatement (responding),"[1]; 1 mg/kg p.o., FIG. 9",sufficient to block cocaine-induced reinstatement
same,sensorimotor gating as assessed by inhibition of a startle response after PCP,"[2]; 1 mg/kg orally 60 min prior to testing, PCP 0-1.25 mg/kg SC, FIG. 6",significant increase in sensorimotor gating
"CCOC1=NC(CSSCC2N=C(OCC)CN=C2OCC)C(OCC)=NC1 (centres unmarked) [Compound 6, Bis[(3,6-Diethoxy-2,5-dihydro-pyrazin-2-yl)-methanethiol]]",restoration of sensorimotor gating after PCP,"[2]; oral administration (0-1 mg/kg) 60 min prior to testing, prepulse 2, 6, 15 dB above background, FIG. 7",significantly restored sensorimotor gating at the highest prepulse intensity
"O=C1CNC(=O)[C@H](CSSC[C@H]2NC(=O)CNC2=O)N1 [Compound 7, Bis[2,5-Piperazinedione, 3-(mercaptomethyl)-]]",sensorimotor gating (inhibition of startle response by pre-pulse) after PCP,[2],significant improvement in sensorimotor gating relative to PCP controls and rats receiving NAC+PCP
same,peak increase in extracellular glutamate in the prefrontal cortex (compared to baseline),[3],much larger peak increase in glutamate
CC(=O)N[C@@H](CS)C(=O)O [N-acetylcysteine],cocaine-induced reinstatement (responding),"[1]; 30 and 60 mg/kg IP, responding over 120 min, FIG. 8",significant reduction in cocaine-induced reinstatement
same,cocaine-induced reinstatement (responding),"[1]; given orally, FIG. 9",less effective when given orally
same,restoration of inhibition of a startle response after PCP,"[2]; infused directly into the rodent prefrontal cortex, 0-100 microM, FIG. 5",significantly restored inhibition of a startle response at each concentration tested
same,restoration of sensorimotor gating after PCP,"[2]; intraperitoneal injection 60 min prior to testing, three prepulse stimulus intensities, FIG. 4",failed to significantly restore sensorimotor gating at any of the three prepulse stimulus intensities
same,attenuation of deficits in prepulse inhibition produced by phencyclidine,"[2]; oral administration 60 min prior to testing, FIG. 3",fails to significantly attenuate deficits in prepulse inhibition
same,sensorimotor gating (inhibition of startle response by pre-pulse) after PCP,[2],trend toward improved sensorimotor gating (p=0.1)
